Assay results: patent publication US20240317744A1, “Bicyclic Ureas As Kinase Inhibitors” (Incyte Corporation, priority 2023, published 2024)

Legend:
[1] = target: catalytic domain (JH1, amino acids 808-1132) of human JAK2 (Homo sapiens, UniProt O60674); experiment: JAK2 HTRF Enzyme Activity Assay; type: biochemical; conditions: ATP 30 µM, 60 minutes at 25° C.; read-out: V617F ENZ 30 UM
[2] = target: T1, pseudo-kinase domain (JH2, amino-acids 536-812) of human V617F mutant JAK2 (Homo sapiens, UniProt O60674, F794H/V617F/W659A/W777A); experiment: JAK2 LanthaScreen JH2-V617F Binding Assay; conditions: JAK2 JH2-V617F 0.26 nM, 50 nM tracer, 1 hour at 25° C.; read-out: JH2 BIND V617F
T1 construct: pseudo-kinase domain (JH2, amino-acids 536-812 with 3 surface mutations W659A, W777A, F794H); His (C); purchased BPS Bioscience 79498; host or cells: baculovirus expression system
Description: Example C. JAK2 LanthaScreen JH2-V617F Binding Assay
JAK2 JH2-V617F binding assay utilizes pseudo-kinase domain (JH2, amino-acids 536-812 with 3 surface mutations W659A, W777A, F794H) of human V617F mutant JAK2 expressed as C-terminal His-Avi-tagged, biotinylated protein in a baculovirus expression system (BPS Bioscience, Catalog #79498). The assay was conducted in black 384-well polystyrene plates in a final reaction volume of 20 μL. JAK2 JH2-V617F (0.26 nM) was incubated with compounds (100 nL serially diluted in DMSO) in the presence of 50 nM Fluorescent JAK2-JH2 Tracer (MedChem Express Catalog #HY-102055) and 0.25 nM Streptavidin-Tb cryptate (Cisbio Part #610SATLB) in assay buffer (50 mM Tris, pH=7.5, 10 mM MgCl2, 0.01% Brij-35, 0.1% BSA, 1 mM EGTA, 5% Glycerol and 5 mM DTT). Non-specific binding was accessed in the presence of 2 mM ATP. After incubation for 1 hour at 25° C., LanthaScreen signals were read on a PHERAstar FS plate reader (BMG LABTECH). Data was analyzed with IDBS XLfit and GraphPad Prism 5.0 software using a four parameter dose response curve to determine IC50 for each compound.

catalytic domain (JH1, amino acids 808-1132) of human JAK2, sequence (O60674 808-1132 limits assumed): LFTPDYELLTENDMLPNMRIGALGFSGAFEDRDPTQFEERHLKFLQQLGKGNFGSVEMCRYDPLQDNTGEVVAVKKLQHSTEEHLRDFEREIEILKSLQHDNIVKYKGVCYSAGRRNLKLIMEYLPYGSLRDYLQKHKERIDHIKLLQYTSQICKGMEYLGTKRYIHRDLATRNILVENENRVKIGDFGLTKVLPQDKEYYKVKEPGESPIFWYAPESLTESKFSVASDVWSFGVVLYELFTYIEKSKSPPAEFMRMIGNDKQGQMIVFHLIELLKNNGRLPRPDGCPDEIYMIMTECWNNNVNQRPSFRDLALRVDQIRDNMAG
T1 sequence (O60674 536-812 V617F/W659A/W777A/F794H): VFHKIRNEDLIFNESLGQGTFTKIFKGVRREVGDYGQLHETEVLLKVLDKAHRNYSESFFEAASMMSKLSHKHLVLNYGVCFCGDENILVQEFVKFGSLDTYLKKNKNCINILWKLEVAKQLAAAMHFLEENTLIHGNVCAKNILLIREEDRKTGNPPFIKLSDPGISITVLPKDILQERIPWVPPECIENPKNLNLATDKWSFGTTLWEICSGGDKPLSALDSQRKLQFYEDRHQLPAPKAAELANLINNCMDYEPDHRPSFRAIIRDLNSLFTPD

| SMILES | IC50 [1] | IC50 [2] |
| --- | --- | --- |
| [2H]C1(NC(=O)OC)CC[C@@H](n2c(=O)n(C([2H])([2H])[2H])c3cnc(Nc4ccc5c(n4)c(-c4cnn(C(F)(F)F)c4)nn5C4CCOCC4)cc32)C1 (stereo partly drawn) [Example 132, Methyl ((3R)-3-(3-(methyl-d3)-2-oxo-6-((1-(tetrahydro-2H-pyran-4-yl)-3-(1-(trifluoromethyl)-1H-pyrazol-4-yl)-1H-pyrazolo[4,3-b]pyridin-5-yl)amino)-2,3-dihydro-1H-imidazo[4,5-c]pyridin-1-yl)cyclopentyl-1-d)carbamate] | > 1000 nM | ≤ 10 nM |
| [2H]C1(NC(=O)OC)CC[C@@H](n2c(=O)n(C([2H])([2H])[2H])c3cnc(Nc4ccc5c(n4)c(-c4cnn(C(F)(F)F)c4)nn5CC4(C#N)CC4)cc32)C1 (stereo partly drawn) [Example 133, Methyl ((3R)-3-(6-((1-((1-cyanocyclopropyl)methyl)-3-(1-(trifluoromethyl)-1H-pyrazol-4-yl)-1H-pyrazolo[4,3-b]pyridin-5-yl)amino)-3-(methyl-d3)-2-oxo-2,3-dihydro-1H-imidazo[4,5-c]pyridin-1-yl)cyclopentyl-1-d)carbamate] | > 1000 nM | ≤ 10 nM |
| [2H]C1(NC(=O)OC)CC[C@@H](n2c(=O)n(C([2H])([2H])[2H])c3cnc(Nc4ccc5nn(CC6(C#N)CC6)c(-c6cnn(C(F)(F)F)c6)c5n4)cc32)C1 (stereo partly drawn) [Example 134, Methyl ((3R)-3-(6-((2-((1-cyanocyclopropyl)methyl)-3-(1-(trifluoromethyl)-1H-pyrazol-4-yl)-2H-pyrazolo[4,3-b]pyridin-5-yl)amino)-3-(methyl-d3)-2-oxo-2,3-dihydro-1H-imidazo[4,5-c]pyridin-1-yl)cyclopentyl-1-d)carbamate] | > 1000 nM | ≤ 10 nM |
| [2H]C([2H])([2H])n1c(=O)n([C@@H]2CC[C@](C)(NC(C)=O)C2)c2cc(Nc3cc(C(C)(C)O)cc(-c4ncc(Cl)s4)n3)ncc21 [Example 136, N-((1S,3R)-3-(6-((6-(5-Chlorothiazol-2-yl)-4-(2-hydroxypropan-2-yl)pyridin-2-yl)amino)-3-(methyl-d3)-2-oxo-2,3-dihydro-1H-imidazo[4,5-c]pyridin-1-yl)-1-methylcyclopentyl)acetamide] | > 1000 nM | ≤ 10 nM |
| [2H]C([2H])([2H])NC(=O)C12CCC(n3c(=O)n(C([2H])([2H])[2H])c4cnc(Nc5cc(C(C)(C)O)cc(-c6ncc(C(F)(F)F)s6)n5)cc43)(CC1)CC2 [Example 137, 4-(6-((4-(2-Hydroxypropan-2-yl)-6-(5-(trifluoromethyl)thiazol-2-yl)pyridin-2-yl)amino)-3-(methyl-d3)-2-oxo-2,3-dihydro-1H-imidazo[4,5-c]pyridin-1-yl)-N-(methyl-d3)bicyclo[2.2.2]octane-1-carboxamide] | > 1000 nM | ≤ 10 nM |
| [2H]C([2H])([2H])n1c(=O)n(C23CCC(C(=O)NC4CC4)(CC2)CC3)c2cc(Nc3cc(C(C)(C)O)cc(-c4ncc(C(F)(F)F)s4)n3)ncc21 [Example 138, N-Cyclopropyl-4-(6-((4-(2-hydroxypropan-2-yl)-6-(5-(trifluoromethyl)thiazol-2-yl)pyridin-2-yl)amino)-3-(methyl-d3)-2-oxo-2,3-dihydro-1H-imidazo[4,5-c]pyridin-1-yl)bicyclo[2.2.2]octane-1-carboxamide] | > 1000 nM | ≤ 10 nM |
| [2H]C([2H])([2H])n1c(=O)n(C23CCC(C(N)=O)(CC2)CC3)c2cc(Nc3cc(C(C)(C)O)cc(-c4ncc(C(F)(F)F)s4)n3)ncc21 [Example 139, 4-(6-((4-(2-Hydroxypropan-2-yl)-6-(5-(trifluoromethyl)thiazol-2-yl)pyridin-2-yl)amino)-3-(methyl-d3)-2-oxo-2,3-dihydro-1H-imidazo[4,5-c]pyridin-1-yl)bicyclo[2.2.2]octane-1-carboxamide] | > 1000 nM | ≤ 10 nM |
| [2H]C([2H])([2H])n1c(=O)n(C23CCC(NC(C)=O)(CC2)CC3)c2cc(Nc3cc(C(C)(C)O)cc(-c4ncc(C(F)(F)F)s4)n3)ncc21 [Example 140, N-(4-(6-((4-(2-Hydroxypropan-2-yl)-6-(5-(trifluoromethyl)thiazol-2-yl)pyridin-2-yl)amino)-3-(methyl-d3)-2-oxo-2,3-dihydro-1H-imidazo[4,5-c]pyridin-1-yl)bicyclo[2.2.2]octan-1-yl)acetamide] | > 1000 nM | ≤ 10 nM |
| [2H]C([2H])([2H])n1c(=O)n(C23CCC(C(N)=O)(CC2)C3)c2cc(Nc3cc(C(C)(C)O)cc(-c4ncc(C(F)(F)F)s4)n3)ncc21 [Example 141, 4-(6-((4-(2-Hydroxypropan-2-yl)-6-(5-(trifluoromethyl)thiazol-2-yl)pyridin-2-yl)amino)-3-(methyl-d3)-2-oxo-2,3-dihydro-1H-imidazo[4,5-c]pyridin-1-yl)bicyclo[2.2.1]heptane-1-carboxamide] | > 1000 nM | ≤ 10 nM |
| [2H]C([2H])([2H])n1c(=O)n(C23CCC(NC(C)=O)(CC2)C3)c2cc(Nc3cc(C(C)(C)O)cc(-c4ncc(C(F)(F)F)s4)n3)ncc21 [Example 142, N-(4-(6-((4-(2-Hydroxypropan-2-yl)-6-(5-(trifluoromethyl)thiazol-2-yl)pyridin-2-yl)amino)-3-(methyl-d3)-2-oxo-2,3-dihydro-1H-imidazo[4,5-c]pyridin-1-yl)bicyclo[2.2.1]heptan-1-yl)acetamide] | > 1000 nM | ≤ 10 nM |
| [2H]C([2H])([2H])n1c(=O)n([C@@H]2CC[C@](C)(NC(=O)CC)C2)c2cc(Nc3cc(C(C)(C)O)cc(-c4ncc(C(F)(F)F)s4)n3)ncc21 [Example 143, N-((1S,3R)-3-(6-((4-(2-Hydroxypropan-2-yl)-6-(5-(trifluoromethyl)thiazol-2-yl)pyridin-2-yl)amino)-3-(methyl-d3)-2-oxo-2,3-dihydro-1H-imidazo[4,5-c]pyridin-1-yl)-1-methylcyclopentyl)propionamide] | > 1000 nM | ≤ 10 nM |
| [2H]C([2H])([2H])n1c(=O)n([C@@H]2CC[C@](C)(NC(C)=O)C2)c2cc(Nc3cc(C(C)(C)O)cc(-c4cnc(C(F)(F)F)s4)n3)ncc21 [Example 146, N-((1S,3R)-3-(6-((4-(2-Hydroxypropan-2-yl)-6-(2-(trifluoromethyl)thiazol-5-yl)pyridin-2-yl)amino)-3-(methyl-d3)-2-oxo-2,3-dihydro-1H-imidazo[4,5-c]pyridin-1-yl)-1-methylcyclopentyl)acetamide] | > 1000 nM | ≤ 10 nM |
| [2H]C([2H])([2H])n1c(=O)n([C@@H]2CC[C@@]([2H])(NC(=O)OC)C2)c2cc(Nc3cc(C(C)(C)O)cc(-c4ncc(C(O)(C(F)(F)F)C(F)(F)F)s4)n3)ncc21 [Example 147, Methyl ((1R,3R)-3-(6-((6-(5-(1,1,1,3,3,3-hexafluoro-2-hydroxypropan-2-yl)thiazol-2-yl)-4-(2-hydroxypropan-2-yl)pyridin-2-yl)amino)-3-(methyl-d3)-2-oxo-2,3-dihydro-1H-imidazo[4,5-c]pyridin-1-yl)cyclopentyl-1-d)carbamate] | > 1000 nM | ≤ 10 nM |
| [2H]C([2H])([2H])n1c(=O)n([C@@H]2CC[C@@]([2H])(NC(=O)OC)C2)c2cc(Nc3cc(C)cc(-c4ncc(C(C)(C)O)s4)n3)ncc21 [Example 148, Methyl ((1R,3R)-3-(6-((6-(5-(2-hydroxypropan-2-yl)thiazol-2-yl)-4-methylpyridin-2-yl)amino)-3-(methyl-d3)-2-oxo-2,3-dihydro-1H-imidazo[4,5-c]pyridin-1-yl)cyclopentyl-1-d)carbamate] | > 1000 nM | ≤ 10 nM |
| [2H]C([2H])([2H])n1c(=O)n([C@@H]2CC[C@@]([2H])(NC(=O)OC)C2)c2cc(Nc3cc(C)c(F)c(-c4ncc(C(C)(C)O)s4)n3)ncc21 [Example 149, Methyl ((1R,3R)-3-(6-((5-fluoro-6-(5-(2-hydroxypropan-2-yl)thiazol-2-yl)-4-methylpyridin-2-yl)amino)-3-(methyl-d3)-2-oxo-2,3-dihydro-1H-imidazo[4,5-c]pyridin-1-yl)cyclopentyl-1-d)carbamate] | > 1000 nM | ≤ 10 nM |
| [2H]C([2H])([2H])c1cc(Nc2cc3c(cn2)n(C([2H])([2H])[2H])c(=O)n3[C@@H]2CC[C@@]([2H])(NC(=O)OC)C2)nc(-c2ncc(C(C)(C)O)s2)c1 [Example 150, Methyl ((1R,3R)-3-(6-((6-(5-(2-hydroxypropan-2-yl)thiazol-2-yl)-4-(methyl-d3)pyridin-2-yl)amino)-3-(methyl-d3)-2-oxo-2,3-dihydro-1H-imidazo[4,5-c]pyridin-1-yl)cyclopentyl-1-d)carbamate] | > 1000 nM | ≤ 10 nM |
